The record followed here is article PMC11391541, “Target-Directed Dynamic Combinatorial Chemistry Affords Binders of Mycobacterium tuberculosis IspE” (ACS Omega, 2024).

Molecules are shown by their SMILES. “And” between values parts separate entries of the source, which are not always exact repeats. Equal values may be shown once.

In data set [1] the test system is MtbH37Rv. Format: cell-based, Mycobacterium tuberculosis.
Data set [2] concerns the target T1, MtbIspE (Mycobacterium tuberculosis, UniProt P9WKG7). Briefly: MtbIspE binding study via thermal shift assay. Conditions: read-out: MtbIspE ΔTm at 20 μM.
Data set [3] deals with T1, MtbIspE. The experiment in a line: target-directed dynamic combinatorial chemistry (tdDCC), amplification of acylhydrazones in protein-templated vs blank DCL (HPLC-MS/MS, UV 310 nm). The format is binding. The procedure:
In this study, we used MtbIspE as target protein and the reversible reaction of hydrazides and aldehydes to form dynamic combinatorial libraries (DCLs) of acylhydrazones. […] To accelerate the reaction at neutral pH, aniline was used as nucleophilic catalyst activating the aldehydes.[2],[4],[19] We analyzed the protein’s effect on the DCLs by comparing HPLC-MS/MS data of blank vs protein-templated (PT) experiments. The experiments spanned 3 days, with periodic sampling (every 2 h, followed by two samples per day after 8 h). The addition of NaOH to raise the pH and halt the reactions ensured the sample composition was preserved for analysis.[19] Templated experiments were conducted in duplicate, and the protein was denatured and removed prior to HPLC-MS/MS analysis.
The tdDCC hits and thus potential MtbIspE binders are amplified in the PT experiment compared to the blank experiment. The first step in the analysis of DCLs is the determination of the equilibrium since the amplification factors need to be calculated when the concentration of products is stable. To determine the evolution of the possible products, it is important to measure the characteristic UV absorbance of the acylhydrazones linker (310 nm) during the HPLC-MS/MS run. The resulting UV peaks are assigned to each product using the MS data (Figures S3–S6). The sum of all peak areas is normalized to 100% in order to obtain the respective relative peak area (RPA) for each product. The RPA values represent relative concentrations, determined at each time point of the blank experiment until the values stabilize. […] However, the rest of the compounds are out of range, making a visual inspection difficult. […] The other three libraries behaved in the same way, reaching equilibrium within 24 h and also maintained stable concentrations beyond (Figures S7–S9). To determine the tdDCC hits, we compared the RPAs of the PT experiments to the blanks at 24 h and set a threshold of at least 50% increase in compound formation. In total, 11 acylhydrazones passed our criteria, with amplification factors ranging from […] to 15.5, qualifying them for resynthesis and further evaluation (Figure 3). During the analysis of chromatograms, challenges arose concerning product identification. Some compound peaks were not neatly separated, forcing us to consider them in clusters, others presented two peaks, likely due to isomers, and were considered separately in our evaluation. Lastly, some compounds were detected by MS, but their respective UV signal interfered with the injection peak or was too low for integration (<1%), both in the blank and PT experiments. Consequently, we excluded these compounds from the analysis (Figure S3–S6).
To a well of a 24-well plate, containing Tris buffer (pH 7.0) were added hydrazides (300 μM each, in DMSO), aldehydes (100 μM each, in DMSO), aniline (20 mM, in DMSO), the protein MtbIspE (25 or 40 μM in Tris buffer at pH 7.0), and an additional amount of DMSO to reach a final concentration of 5% in the DCL with 0.5 mL of end-volume. The DCL was allowed to mix on a plate shaker at room temperature and was frequently monitored via LCMS-MS. For analysis, 30 μL of the corresponding library was mixed with 42 μL acetonitrile and 3 μL of NaOH (1 M), the mixture was centrifuged, and the supernatant was used for the analysis. PT experiments were run in duplicates and the protein was omitted for the blank experiments.
High-resolution mass (HRMS) of final products was determined by HPLC-MS/MS using a Thermo Scientific Q Exactive Focus Orbitrap LC -MS/MS system. All compounds were analyzed for purity by LCMS on Acquity UPLC-SQD system from Waters with a gradient elution of Water (Formic acid 0.1%)/Acetonitrile on an HSS - T3 column (2.1 x 50 mm, Waters), 1.8 µm, at 30°C, PDA detection between 240 -320 nm, and MS detection by simultaneous ES+/ES- ionization in a mass range of 150 -800. The flow is set to 0.9 ml/min, and the […]
gradient time is 1.5 min. […]

The subject of data set [4] is EcTolC. The experiment in a line: microbe, parasite or virus in culture. The format is cell-based. Conditions: Escherichia coli, 18 h, LB medium, read-out: EcTolC %inh. At 50 μM.
A short description of data set [5]: in vitro. Conditions: human, HepG2 CC50, HepG2, 48 h, MTT.
The target in data set [6] is T1, MtbIspE. Briefly: MtbIspE binding study via MicroScale Thermophoresis (MST). The conditions noted are these: for MtbIspE binding at 20 μM: MST, 20 μM ligand, 200 nM MtbIspE, triplicate, qualitative. For orientation: MST reads how a fluorescent partner responds to local heating, with and without ligand.
For data set [7], the system named is EcK12. The experiment in a line: E. coli growth inhibition, wild-type strain K12. The format is cell-based, Escherichia coli. Conditions: 18 h, LB medium; for inhibition at 50 µM: Escherichia coli, read-out: EcK12 %inh. At 50 μM.

T1 sequence (P9WKG7 whole entry): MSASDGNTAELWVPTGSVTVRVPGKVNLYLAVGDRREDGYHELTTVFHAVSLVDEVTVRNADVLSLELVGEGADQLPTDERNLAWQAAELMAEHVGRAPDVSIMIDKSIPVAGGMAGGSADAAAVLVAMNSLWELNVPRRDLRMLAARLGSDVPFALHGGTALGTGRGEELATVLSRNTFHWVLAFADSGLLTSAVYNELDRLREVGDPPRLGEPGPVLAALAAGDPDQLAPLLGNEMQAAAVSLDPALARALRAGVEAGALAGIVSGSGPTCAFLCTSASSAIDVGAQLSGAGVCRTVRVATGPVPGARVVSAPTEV

A word on the ΔTm: it is the change in melting temperature against a reference sample. On to `O=C(N/N=C/c1cc(Cl)ccc1O)c1ccncc1` [L1, (E)-N′-(5-Chloro-2-hydroxybenzylidene)isonicotinohydrazide], for which, in data set [1], the “MtbH37Rv MIC90” value is “no inh. at max. sol”. Further, the shift in melting temperature (ΔTm) at 20 µM in data set [2] was less than 0.3 °C. Also, the “Amplification factors (DCL-3)” value in data set [3] (DCL-3, 24 h, 40 mol % MtbIspE, I1 and K1 integrated as one cluster) is 4.1. For the same compound, in data set [4], the inhibition at 50 µM is 52 ± 3%. Further, in data set [5], the CC50 is approximately 50 µM. Also, in data set [6], the “MtbIspE binding at 20 μM” value was “did not bind and No”. In addition, the “MtbIspE binding in saturation MST experiment” value in data set [6] (saturation MST experiment) is “no binding”. Also, in data set [7], the “EcK12 %inh. At 50 μM” value was “appreciable effect” and the inhibition at 50 µM was 18 ± 6%.

Regarding `O=C(N/N=C/c1ccc(C(F)(F)F)cc1)c1cccc(Cl)c1` [K4, (E)-3-Chloro-N′-(4-(trifluoromethyl)benzylidene)benzohydrazide], the “MtbH37Rv MIC90” value in data set [1] was “no inh. at max. sol”. The ΔTm at 20 µM in data set [2] was 0.7 °C. Moreover, in data set [3] (DCL-2, 40 mol % MtbIspE), the “Amplification factor (DCL-2, control compound)” value is 0.0. The inhibition at 50 µM is 38 ± 4% in data set [4] and 12 ± 4% in data set [7]. The CC50 in data set [5] is more than 50 µM. Further, the “MtbIspE binding at 20 μM” value in data set [6] was “binding in only one measurement and 1/3”.

As to `COc1ccc(-c2cc(/C=N/NC(=O)c3cc(CC(C)C)n[nH]3)no2)cc1` [D6, (E)-3-Isobutyl-N′-((5-(4-methoxyphenyl)isoxazol-3-yl)methylene)-1H-pyrazole-5-carbohydrazide], the “MtbH37Rv MIC90” value in data set [1] is listed as “no inh. at max. sol”. Further, the ΔTm at 20 µM in data set [2] is less than 0.3 °C. The “Amplification factors (DCL-4)” value in data set [3] (DCL-4, 24 h, 40 mol % MtbIspE) came to 1.0. The inhibition at 50 µM in data set [4] was 39 ± 6%; in data set [7], less than 10%. Further, the CC50 in data set [5] was more than 50 µM. Besides, the “MtbIspE binding at 20 μM” value in data set [6] is “No”.
